biological target: interaction of human SOS1 (SOS1) with human K-RasG12C (Homo sapiens (Human), UniProt Q07889); test: Biochemical assay: hK-RasG12C interaction assay with hSOS1 (HTRF); type: binding; conditions: GST-hK-RasG12C with His-hSOS1, 60 min incubation at 20° C., mean, read-out: K-RasG12C - SOS interaction assay IC50 (mean)
Summary of the method: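 Compounds, duplicates at 11 concentrations from 0.073 nM to 20 µM, were preincubated 2 min with 10 nM GST-hK-RasG12C, then 20 nM His-hSOS1 was added, all at 20 °C. After 60 min, 665/620 nm HTRF ratio normalized to DMSO and SOS1-free controls; IC50 by 4-parameter fit.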

interaction of human SOS1 (SOS1) with human K-RasG12C, sequence (Q07889 564-1049 limits assumed): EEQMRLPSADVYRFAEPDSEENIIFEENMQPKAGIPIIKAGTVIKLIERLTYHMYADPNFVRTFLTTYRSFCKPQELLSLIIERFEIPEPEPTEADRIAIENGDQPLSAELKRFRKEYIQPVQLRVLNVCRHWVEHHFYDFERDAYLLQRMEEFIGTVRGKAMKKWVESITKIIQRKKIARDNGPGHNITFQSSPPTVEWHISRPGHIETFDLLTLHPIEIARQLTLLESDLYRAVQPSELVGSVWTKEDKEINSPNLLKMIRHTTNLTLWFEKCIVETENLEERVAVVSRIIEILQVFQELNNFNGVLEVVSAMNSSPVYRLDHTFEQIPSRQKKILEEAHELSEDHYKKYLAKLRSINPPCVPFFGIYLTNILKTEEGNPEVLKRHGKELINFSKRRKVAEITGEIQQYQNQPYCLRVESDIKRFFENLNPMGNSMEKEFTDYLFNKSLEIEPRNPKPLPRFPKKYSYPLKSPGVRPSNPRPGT

Q: With `Cc1nc(N[C@H](C)c2cccc(C(F)F)c2F)c2cc(P3(=O)CCCC3)ncc2n1` [Example 107, 1-[4-{{(1R)-1-[3-(difluoromethyl)-2-fluorophenyl]ethyl}amino)-2-methylpyrido[3,4-d]pyrimidin-6-yl]-1lambda^5-phospholan-1-one] as the compound, how does the IC50 read?
A: 20.5 nM

Q: For `Cc1nc(N[C@H](C)c2cccc(C(F)F)c2F)c2cc(P(=O)(C(C)C)C(C)C)ncc2n1` [Example 108, N-{(1R)-1-[3-(difluoromethyl)-2-fluorophenyl]ethyl}-6-[di(propan-2-yl)phosphoryl]-2-methylpyrido[3,4-d]pyrimidin-4-amine], which IC50 is on record?
A: 153 nM

Q: `Cc1nc(N[C@H](C)c2cccc(C(F)(F)C(=O)C(C)C)c2F)c2cc(P(C)(C)=O)ncc2n1` [Example 109, 1-{3-[(1R)-1-{[6-(dimethylphosphoryl)-2-methylpyrido[3,4-d]pyrimidin-4-yl]amino}ethyl]-2-fluorophenyl}-1,1-difluoro-3-methylbutan-2-one] was tested. Which IC50 did it give?
A: 33.3 nM

Q: For `Cc1nc(N[C@H](C)c2cccc(C(F)(F)C(=O)C(C)(C)C)c2F)c2cc(P(C)(C)=O)ncc2n1` [Example 110, 1-{3-[(1R)-1-{[6-(dimethylphosphoryl)-2-methylpyrido[3,4-d]pyrimidin-4-yl]amino}ethyl]-2-fluorophenyl}-1,1-difluoro-3,3-dimethylbutan-2-one], which IC50 is on record?
A: 56.8 nM

Q: Which IC50 does the source give for `Cc1nc(N[C@H](C)c2cccc(C(F)F)c2F)c2cc(P(C)(=O)C(C)C)ncc2n1` (stereo partly drawn) [Example 114, N-{(1R)-1-[3-(difluoromethyl)-2-fluorophenyl]ethyl}-2-methyl-6-[methyl(propan-2-yl)phosphoryl]pyrido[3,4-d]pyrimidin-4-amine] here?
A: 66.5 nM

Q: How did the IC50 turn out when `CCP(C)(=O)c1cc2c(N[C@H](C)c3cccc(C(F)F)c3F)nc(C)nc2cn1` (stereo partly drawn) [Example 117, N-{(1R)-1-[3-(difluoromethyl)-2-fluorophenyl]ethyl}-6-[ethyl(methyl)phosphoryl]-2-methylpyrido[3,4-d]pyrimidin-4-amine] was run?
A: 56.9 nM

Q: How did the IC50 turn out when `Cc1nc(N[C@H](C)c2cccc(C(F)(F)F)c2Cl)c2cc(P(C)(C)=O)ncc2n1` [Example 120, N-{(1R)-1-[2-chloro-3-(trifluoromethyl)phenyl]ethyl}-6-(dimethylphosphoryl)-2-methylpyrido[3,4-d]pyrimidin-4-amine] was run?
A: 36.7 nM

Q: How did the IC50 turn out when `COC(C)(C)C(F)(F)c1cccc([C@@H](C)Nc2nc(C)nc3cnc(P(C)(C)=O)cc23)c1F` [Example 121, N-{(1R)-1-[3-(1,1-difluoro-2-methoxy-2-methylpropyl)-2-fluorophenyl]ethyl}-6-(dimethylphosphoryl)-2-methylpyrido[3,4-d]pyrimidin-4-amine] was run?
A: 87.1 nM

Q: For `COC(C)(C)C(F)(F)c1cccc([C@@H](C)Nc2nc(C)nc3cnc(P4(=O)CCCC4)cc23)c1F` [Example 122, 1-[4-({(1R)-1-[3-(1,1-difluoro-2-methoxy-2-methylpropyl)-2-fluorophenyl]ethyl}amino)-2-methylpyrido[3,4-d]pyrimidin-6-yl]-1lambda^5-phospholan-1-one], which IC50 is on record?
A: 62.6 nM

Q: With `CCP(=O)(CC)c1cc2c(N[C@H](C)c3cccc(C(F)(F)C(C)(C)O)c3F)nc(C)nc2cn1` [Example 123, 1-{3-[(1R)-1-{[6-(diethylphosphoryl)-2-methylpyrido[3,4-d]pyrimidin-4-yl]amino}ethyl]-2-fluorophenyl}-1,1-difluoro-2-methylpropan-2-ol] as the compound, how does the IC50 read?
A: 59 nM

Q: Which IC50 does the source give for `Cc1nc(N[C@H](C)c2cccc(C(F)(F)CO)c2F)c2cc(P(C)(C)=O)nc(C)c2n1` [Example 124, 2-{3-[(1R)-1-{[6-(dimethylphosphoryl)-2,8-dimethylpyrido[3,4-d]pyrimidin-4-yl]amino}ethyl]-2-fluorophenyl}-2,2-difluoroethan-1-ol] here?
A: 16.7 nM

Q: How did the IC50 turn out when `Cc1nc(N[C@H](C)c2cccc(C(F)F)c2F)c2cc(P(C)(C)=O)c(C(F)(F)F)nc2n1` [Example 125, N-{(1R)-1-[3-(difluoromethyl)-2-fluorophenyl]ethyl}-6-(dimethylphosphoryl)-2-methyl-7-(trifluoromethyl)pyrido[2,3-d]pyrimidin-4-amine] was run?
A: 44.3 nM

Q: How did the IC50 turn out when `Cc1nc(N[C@H](C)c2cccc(C(F)F)c2F)c2cc(P3(=O)CCCC3)c(C)nc2n1` [Example 126, 1-[4-{{(1R)-1-[3-(difluoromethyl)-2-fluorophenyl]ethyl}amino)-2,7-dimethylpyrido[2,3-d]pyrimidin-6-yl]-1lambda^5-phospholan-1-one] was run?
A: 9.24 nM

Q: For `Cc1nc(N[C@H](C)c2cccc(C(F)F)c2F)c2cc(P3(=O)CCCC3)ccc2n1` [Example 127, 1-[4-{{(1R)-1-[3-(difluoromethyl)-2-fluorophenyl]ethyl}amino)-2-methylquinazolin-6-yl]-1lambda^5-phospholan-1-one], which IC50 is on record?
A: 23.4 nM

Q: For `Cc1nc(N[C@H](C)c2cccc(C(F)F)c2F)c2cc(P(C)(C)=O)ccc2n1` [Example 128, N-{(1R)-1-[3-(difluoromethyl)-2-fluorophenyl]ethyl}-6-(dimethylphosphoryl)-2-methylquinazolin-4-amine], which IC50 is on record?
A: 20.9 nM

Q: Which IC50 does the source give for `Cc1nc(N[C@H](C)c2cccc(C(F)F)c2F)c2cc(P(=O)(C(C)C)C(C)C)c(C)nc2n1` [Example 129, N-{(1R)-1-[3-(difluoromethyl)-2-fluorophenyl]ethyl}-6-[di(propan-2-yl)phosphoryl]-2,7-dimethylpyrido[2,3-d]pyrimidin-4-amine] here?
A: 132 nM

Q: Which IC50 does the source give for `CCP(C)(=O)c1cc2c(N[C@H](C)c3cccc(C(F)(F)CO)c3F)nc(C)nc2cn1` (stereo partly drawn) [Example 130, 2-{3-[(1R)-1-{{6-[ethyl(methyl)phosphoryl]-2-methylpyrido[3,4-d]pyrimidin-4-yl}amino)ethyl]-2-fluorophenyl}-2,2-difluoroethan-1-ol] here?
A: 16.1 nM

Q: With `[2H]C([2H])([2H])[C@]([2H])(Nc1nc(C)nc2cnc(P3(=O)CCN(C(C)=O)CC3)cc12)c1cccc(C(F)(F)F)c1C` [Example 138, 1-acetyl-4-(2-methyl-4-{[(1S)-1-[2-methyl-3-(trifluoromethyl)phenyl](^2H4)ethyl]amino}pyrido[3,4-d]pyrimidin-6-yl)-1,4lambda^5-azaphosphinan-4-one] as the compound, how does the IC50 read?
A: 6.01 nM

Q: How did the IC50 turn out when `COCC(F)(F)c1cccc([C@@H](C)Nc2nc(C)nc3cnc(P4(=O)CCN(C(C)=O)CC4)cc23)c1F` [Example 139, 1-acetyl-4-[4-({(1R)-1-[3-(1,1-difluoro-2-methoxyethyl)-2-fluorophenyl]ethyl}amino)-2-methylpyrido[3,4-d]pyrimidin-6-yl]-1,4lambda^5-azaphosphinan-4-one] was run?
A: 5.4 nM

Q: How did the IC50 turn out when `COC(C)(C)C(F)(F)c1cccc([C@@H](C)Nc2nc(C)nc3cnc(P4(=O)CCN(C(C)=O)CC4)cc23)c1F` [Example 140, 1-acetyl-4-[4-({(1R)-1-[3-(1,1-difluoro-2-methoxy-2-methylpropyl)-2-fluorophenyl]ethyl}amino)-2-methylpyrido[3,4-d]pyrimidin-6-yl]-1,4lambda^5-azaphosphinan-4-one] was run?
A: 11.4 nM

Q: With `CC(=O)N1CCP(=O)(c2cc3c(N[C@H](C)c4cccc(C(C)(F)F)c4)nc(C)nc3cn2)CC1` [Example 141, 1-acetyl-4-[4-({(1R)-1-[3-(1,1-difluoroethyl)phenyl]ethyl}amino)-2-methylpyrido[3,4-d]pyrimidin-6-yl]-1,4lambda^5-azaphosphinan-4-one] as the compound, how does the IC50 read?
A: 12.8 nM

Q: Which IC50 does the source give for `CC(=O)N1CCP(=O)(c2cc3c(N[C@H](C)c4cccc(C(F)(F)F)c4F)nc(C)nc3cn2)CC1` [Example 142, 1-acetyl-4-[4-{{(1R)-1-[2-fluoro-3-(trifluoromethyl)phenyl]ethyl}amino)-2-methylpyrido[3,4-d]pyrimidin-6-yl]-1,4lambda^5-azaphosphinan-4-one] here?
A: 6.3 nM

Q: How did the IC50 turn out when `COCC(F)(F)c1cccc([C@@H](C)Nc2nc(C)nc3cnc(P4(=O)CCN(C(C)=O)CC4)cc23)c1` [Example 143, 1-acetyl-4-[4-({(1R)-1-[3-(1,1-difluoro-2-methoxyethyl)phenyl]ethyl}amino)-2-methylpyrido[3,4-d]pyrimidin-6-yl]-1,4lambda^5-azaphosphinan-4-one] was run?
A: 12.6 nM

Q: With `COc1nc2nc(C)nc(N[C@H](C)c3cccc(C(F)(F)F)c3C)c2cc1P1(=O)CCN(C(C)=O)CC1` [Example 144, 1-acetyl-4-[7-methoxy-2-methyl-4-({(1R)-1-[2-methyl-3-(trifluoromethyl)phenyl]ethyl}amino)pyrido[2,3-d]pyrimidin-6-yl]-1,4lambda^5-azaphosphinan-4-one] as the compound, how does the IC50 read?
A: 1.97 nM

Q: `CC(=O)N1CCP(=O)(c2cc3c(N[C@H](C)c4cccc(C(F)(F)F)c4C)nc(C)nc3nc2C)CC1` [Example 145, 1-acetyl-4-[2,7-dimethyl-4-({(1R)-1-[2-methyl-3-(trifluoromethyl)phenyl]ethyl}amino)pyrido[2,3-d]pyrimidin-6-yl]-1,4lambda^5-azaphosphinan-4-one] was tested. Which IC50 did it give?
A: 4.35 nM

Q: Which IC50 does the source give for `CC(=O)N1CCP(=O)(c2cc3c(N[C@H](C)c4cccc(C(F)(F)F)c4C)nc(C)nc3c(C)n2)CC1` [Example 146, (R)-1-(4-(2,8-dimethyl-4-((1-(2-methyl-3-(trifluoromethyl)phenyl)ethyl)amino)pyrido[3,4-d]pyrimidin-6-yl)-4-oxido-1,4-azaphosphinan-1-yl)ethan-1-one] here?
A: 81 nM

Q: For `CC(=O)N1CCP(=O)(c2cnc3nc(C)nc(N[C@H](C)c4cccc(C(F)(F)F)c4C)c3c2)CC1` [Example 147, 1-acetyl-4-[2-methyl-4-({(1R)-1-[2-methyl-3-(trifluoromethyl)phenyl]ethyl}amino)pyrido[2,3-d]pyrimidin-6-yl]-1,4lambda^5-azaphosphinan-4-one], which IC50 is on record?
A: 4.51 nM

Q: `CO[C@@H](C)C(=O)N1CCP(=O)(c2cc3c(N[C@H](C)c4cccc(C(F)F)c4F)nc(C)nc3cn2)CC1` [Example 149, 4-[4-{{(1R)-1-[3-(difluoromethyl)-2-fluorophenyl]ethyl}amino)-2-methylpyrido[3,4-d]pyrimidin-6-yl]-1-[(2S)-2-methoxypropanoyl]-1,4lambda^5-azaphosphinan-4-one] was tested. Which IC50 did it give?
A: 18 nM

— patent US20240247015A1, “PHOSPHORUS DERIVATIVES AS NOVEL SOS1 INHIBITORS” (BAYER AKTIENGESELLSCHAFT, priority 2021, published 2024)
